Assay results: patent publication US8900880B2, “Viral citrullinated peptides and uses thereof” (Toscana Biomarkers S.R.L., priority 2009, dated 2014)
Where no end group is shown, it is not given here. [ ]: non-standard residue; d: D form. Cit = NC(=O)NCCC[C@H](N)C(=O)O

Test system: IgG antibodies in RA and NHS sera
Experiment: ELISA with differently citrullinated EBNA-2(338-358) peptides (Example 6)
Assay type: binding, human
Settings: for NHS positive sera: 23 normal healthy subjects; for NHS positive sera / RA positive sera: positive = greater than 97.5th percentile of normal control group; for RA positive sera: 24 RA patients; for reactivity with RA sera (in words): 24 RA sera, relevant = more than 25% positive
Source text: The role of the number and of the position of citrullines inside EBNA-2(338-358) sequence in the detection of specific antibodies in RA sera was investigated by means of differently citrullinated peptides (Table 1).
It is believed that these two positions relate to two different antigenic regions.

Substance	NHS positive sera	RA positive sera	reactivity with RA sera (in words)	specificity and selectivity (in words) (RA versus NHS sera)
GQSRGQSCitGRGRGCitGRGRGKG (GQSRGQS[Cit]GRGRG[Cit]GRGRGKG) [[Cit^345, Cit^351]EBNA2(338-358)]	1/23	12/24		
GQSRGQSRGRGCitGCitGRGRGKG (GQSRGQSRGRG[Cit]G[Cit]GRGRGKG) [[Cit^349, Cit^351]EBNA2(338-358)]	2/23	15/24	very active	less specific and selective
GQSRGQSRGCitGRGCitGRGRGKG (GQSRGQSRG[Cit]GRG[Cit]GRGRGKG; not fully specified) [[Cit^347, Cit^349]EBNA2(338-358)]	1/23	5/24		
GQSRGQSCitGRGRGRGRGCitGKG (GQSRGQS[Cit]GRGRGRGRG[Cit]GKG) [[Cit^345, Cit^355]EBNA2(338-358)]	0/23	11/24		
GQSRGQSRGRGCitGRGRGRGKG (GQSRGQSRGRG[Cit]GRGRGRGKG) [[Cit^349]EBNA2(338-358)]	1/23	9/24		
GQSCitGQSRGRGRGCitGRGRGKG (GQS[Cit]GQSRGRGRG[Cit]GRGRGKG; not fully specified) [[Cit^341, Cit^349]EBNA2(338-358)]	0/23	6/24		
GQSCitGQSRGRGRGRGRGRGKG (GQS[Cit]GQSRGRGRGRGRGRGKG) [[Cit^341]EBNA2(338-358)]	1/23	4/24		
GQSCitGQSCitGRGCitGRGRGRGKG (GQS[Cit]GQS[Cit]GRG[Cit]GRGRGRGKG)	1/23	12/24	most active peptide in this series	
GQSRGQSRGRGRGRGCitGRGKG (GQSRGQSRGRGRGRG[Cit]GRGKG) [[Cit^353]EBNA2(338-358)]	0/23	6/24		
GQSRGQSCitGRGCitGRGCitGRGKG (GQSRGQS[Cit]GRG[Cit]GRG[Cit]GRGKG)	1/23	10/24		
GQSCitGQSRGRGRGRGRGCitGKG (GQS[Cit]GQSRGRGRGRGRG[Cit]GKG) [[Cit^341, Cit^355]EBNA2(338-358)]	1/23	8/24		
GQSRGQSRGRGRGCitGRGRGKG (GQSRGQSRGRGRG[Cit]GRGRGKG) [[Cit^351]EBNA2(338-358)]	1/23	6/24		
GQSRGQSRGRGRGCitGCitGRGKG (GQSRGQSRGRGRG[Cit]G[Cit]GRGKG; not fully specified) [[Cit^349, Cit^353]EBNA2(338-358)]	0/23	12/24		
GQSRGQSRGRGRGRGRGCitGKG (GQSRGQSRGRGRGRGRG[Cit]GKG) [[Cit^355]EBNA2(338-358)]	2/23	3/24		
GQSRGQSCitGCitGRGRGRGRGKG (GQSRGQS[Cit]G[Cit]GRGRGRGRGKG) [[Cit^345, Cit^347]EBNA2(338-358)]	1/23	10/24		
GQSCitGQSCitGRGRGRGRGRGKG (GQS[Cit]GQS[Cit]GRGRGRGRGRGKG) [[Cit^341, Cit^345]EBNA2(338-358)]	0/23	12/24		
GQSRGQSCitGCitGCitGRGRGRGKG (GQSRGQS[Cit]G[Cit]G[Cit]GRGRGRGKG) [[Cit345, Cit^347, Cit^349]EBNA2(338-358)]	1/23	9/24		
GQSRGQSCitGRGRGRGRGRGKG (GQSRGQS[Cit]GRGRGRGRGRGKG) [[Cit^345]EBNA2(338-358)]	1/23	9/24		
GQSRGQSCitGRGCitGCitGRGRGKG (GQSRGQS[Cit]GRG[Cit]G[Cit]GRGRGKG)	1/23	8/24		
GQSRGQSCitGRGRGRGCitGRGKG (GQSRGQS[Cit]GRGRGRG[Cit]GRGKG) [[Cit^345, Cit^353]EBNA2(338-358)]	2/23	6/24		
